According to patent US8268882B2 (priority 2009, dated 2012):
Read-outs that look alike come from different tables or passages of the source.

Key:
[1] = system: IL-2 production in Jurkat cells; test: cells; format: cell-based, human; conditions: for IC50: read-out: immunosuppression IL-2 (IC50)
in vitro = conditions: human
[2] = system: Human T cell lymphoma (Jurkat) cells

Row | Molecule | inhibition of IL-2 production [1] | IC50 ([1]; Homo sapiens, Jurkat, 24 h) | EC50 (in vitro) | cytotoxicity in MTT assay compared with triptolide [2] | cytotoxicity to Jurkat cells [2] | IC50 ([1]; Jurkat cells stimulated with PMA and PHA, 24 hrs, test compounds incubated in serum for 24 hrs) | EC50 ([2]; read-out: Viability/Cytotoxicity MTT (ED50), Jurkat cells, 24 h culture, test compounds incubated in serum for 24 hrs)
1 | CC(C)[C@]12O[C@H]1[C@@H]1O[C@]13[C@]1(O[C@H]1C[C@H]1C4=C(CC[C@@]13C)C(=O)OC4)[C@@H]2OC(=O)C(=O)O[C@@H]1[C@@]2(C(C)C)O[C@H]2[C@@H]2O[C@]23[C@]12O[C@H]2C[C@H]1C2=C(CC[C@@]13C)C(=O)OC2 [PG782] | inhibited IL-2 production | 0.002 µM | 0.053 µM | more potent than triptolide | cytotoxic to Jurkat cells | – | –
2 | CC(C)[C@]12O[C@H]1[C@@H]1O[C@]13[C@@]1(OC(=O)O[C@H]21)[C@H](Cl)C[C@H]1C2=C(CC[C@@]13C)C(=O)OC2 [PG762] | inhibited IL-2 production | 0.009 µM | 0.06 µM | comparable potency | cytotoxic to Jurkat cells | – | –
3 | CC(C)[C@]1(O)[C@H](Cl)[C@@H]2O[C@]23[C@@]2(OC(=O)O[C@H]12)[C@H](Cl)C[C@H]1C2=C(CC[C@@]13C)C(=O)OC2 [PG757] | inhibited IL-2 production | 0.009 µM | 0.032 µM | significantly more cytotoxic | cytotoxic to Jurkat cells | – | –
4 | triptolide [PG490, reference compound] | – | – | – | – | – | 0.004 µM | 0.06 µM
